Data published in PMC9612231, “Antileishmanial Anthracene Endoperoxides: Efficacy In Vitro, Mechanisms and Structure-Activity Relationships” (Molecules, 2022).

Tests used:
LtP = test: Superoxide radical formation in LtP by the EPR/CMH method; assay type: cell-based, Leishmania tarentolae; settings: 20 min at 25 °C; for Superoxide formation in LtP (CMH oxidation), in words: 100 µM compound
Source text: Since mitochondrial inhibition can be triggered by secondary damage in the respective cells, for example, by superoxide radicals, we studied the formation of superoxide radicals in LtP by the EPR/hydroxyl-3-methoxycarbonyl-2,2,5,5-tetramethylpyrrolidine hydrochloride (CMH) method (Figure 10). […] In the presence of antimycin A (AA, an inhibitor of mitochondrial complex III), the superoxide radical formation in LtP is increased by more than 150% (Figure 11).
An aliquot of the LtP cell culture equivalent to 5 × 10^8 LtP was transferred into a 1.5 mL Eppendorf tube and was centrifuged (Hettich Universal 16, 20 °C, 2000× g, 10 min). After removal of the supernatant, the cell pellet was re-suspended in 1 mL PBS and centrifuged again and the supernatant discarded. The cell pellet was re-suspended in 1 mL of PBS with 15 mM glucose (PBS-gluc), giving a final cell density of 5 × 10^8 LtP/mL. AcEP/Ac compounds were added (100 µM final concentration) to aliquots of 50 µL of this cell suspension in 1.5 mL Eppendorf tubes and incubated for 20 min at 25 °C. Then, DFO (100 μM final concentration), DTPA (25 μM final concentration), and detection agent CMH (400 µM final concentration) were added to the aliquots before measurement. Samples containing only buffer (PBS-gluc) or only LtP (in PBS-gluc) were used as negative controls, while samples containing 20 μM AA were used as positive control. An aliquot of 17 µL suspension was aspirated into a PTFE tube (ø 0.7 mm). The tube was folded into a quartz tube (ø 4 mm outer diameter) and then transferred to the MD5 resonator of the EPR spectrometer. The measurement was started using following parameters: microwave frequency 9.682 GHz; microwave power 20 mW, modulation frequency 100 kHz; modulation amplitude 1 G; time constant 0.82 s; center field 3448 G; sweep width 100 G; scan time 84 s; attenuation 70 dB; separate scans 5. Based on a calibration curve with carboxy proxyl (CP^●) changes of the peak-to-peak intensity of CM^● spectra were converted to CMH oxidation rates (superoxide radical generation).

J774 macrophages = test: Cellular oxygen consumption of J774 cells (OxoPlates); assay type: cell-based, murine; settings: 200 µM compound, 2 × 10^6 cells/mL
Source text: The experimental data so far indicate that in more complex EP not only the endoperoxyl group contributes to its pharmacological actions. Therefore, mitochondria present in the parasites but also in the host cells could be either a trigger for activating pharmacological actions of these compounds or a target of EP-derived radicals generated at other sites in the cell. In a subsequent experiment, we tested the influence of AcEP and non-endoperoxidic analogs (Ac) on the mitochondrial oxygen consumption in LtP and J774 macrophages (Figure 9).
Oxygen consumption rates of LtP in complete BHI culture medium and J774 in PBS-gluc treated with AcEPs were measured using round-bottomed OxoPlates (OP96U, Precision Sensing GmbH, Regensburg, Germany). […] Then, the fluorescence of both calibration media was measured at a microplate reader (Perkin Elmer EnSpire, Rodgau, Germany) in a dual kinetic mode, using an excitation wavelength of 540 nm for both dyes and emission wavelengths of 650 nm for the indicator dye and 590 nm for the reference dye. The ratio of both fluorescence intensities (IR) was calculated for each well and averaged giving the two calibration constants k0 (oxygen-free) or k100 (air-saturated). […] Both fluorescence intensities of each well were determined in 5 min intervals over up to 40 min. Each compound was measured in quadruplicates. […]

Row | Compound | Superoxide formation in LtP (CMH oxidation), in words (LtP) | Increase of superoxide formation in LtP (LtP; 100 µM Ac/AcEP) | Inhibition of mitochondrial oxygen consumption in J774 macrophages (J774 macrophages)
1 | CC(C)(C)c1ccc2c(-c3cccnc3)c3ccccc3c(-c3cccnc3)c2c1 [mPyBuAc] | most effective in boosting the superoxide production | – | –
2 | CC(C)(C)c1ccc2c(c1)C1(c3cccnc3)OOC2(c2cccnc2)c2ccccc21 (stereo not shown) [mPyBuAcEP] | most effective in boosting the superoxide production | more than 70% | more moderate
